We go through 4 compounds from ChEMBL document CHEMBL1201862, “PubChem BioAssay data set” (2004).

Broadly, the IC50 is the point on the concentration scale where inhibition reaches its midpoint. Broadly, the AC50 is the concentration giving half of the maximal activity seen. The term EC50 denotes the concentration that produces a half-maximal response.

In one test the target is Genome polyprotein (dengue virus type 2, UniProt P29990). Put plainly: flavivirus cap methylation enzyme inhibition – biochemical, confirmation dose response, primary screen (AID 588689). In kind it is functional.
Genome polyprotein, sequence (P29990 2492-3391 limits assumed): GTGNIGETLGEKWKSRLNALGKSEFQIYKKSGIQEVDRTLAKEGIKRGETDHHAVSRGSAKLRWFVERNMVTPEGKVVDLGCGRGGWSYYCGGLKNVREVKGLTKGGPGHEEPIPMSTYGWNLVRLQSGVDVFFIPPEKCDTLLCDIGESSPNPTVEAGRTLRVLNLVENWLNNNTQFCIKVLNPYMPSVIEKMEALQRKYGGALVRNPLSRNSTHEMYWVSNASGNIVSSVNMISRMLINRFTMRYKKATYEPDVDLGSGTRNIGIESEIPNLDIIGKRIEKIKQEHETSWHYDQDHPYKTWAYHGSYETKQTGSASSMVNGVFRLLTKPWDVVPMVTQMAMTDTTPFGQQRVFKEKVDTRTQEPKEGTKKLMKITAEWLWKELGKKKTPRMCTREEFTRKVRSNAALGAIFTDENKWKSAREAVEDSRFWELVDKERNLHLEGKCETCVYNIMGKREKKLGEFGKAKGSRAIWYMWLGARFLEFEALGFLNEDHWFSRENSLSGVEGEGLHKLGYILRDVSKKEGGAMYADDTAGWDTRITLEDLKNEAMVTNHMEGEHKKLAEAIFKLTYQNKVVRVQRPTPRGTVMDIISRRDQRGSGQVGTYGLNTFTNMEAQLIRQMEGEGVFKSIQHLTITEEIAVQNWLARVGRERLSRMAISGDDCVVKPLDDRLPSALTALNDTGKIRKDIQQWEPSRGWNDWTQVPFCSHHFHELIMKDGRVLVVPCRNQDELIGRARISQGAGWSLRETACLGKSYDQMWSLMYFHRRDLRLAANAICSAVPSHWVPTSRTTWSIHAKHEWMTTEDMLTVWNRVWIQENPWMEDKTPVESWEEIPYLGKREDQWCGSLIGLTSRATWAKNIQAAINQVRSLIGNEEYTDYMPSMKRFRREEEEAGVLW
In test [1] the target is T1, Replicative DNA helicase DnaB (Mycobacterium tuberculosis, UniProt P9WMR3).
T1 sequence (P9WMR3 whole entry): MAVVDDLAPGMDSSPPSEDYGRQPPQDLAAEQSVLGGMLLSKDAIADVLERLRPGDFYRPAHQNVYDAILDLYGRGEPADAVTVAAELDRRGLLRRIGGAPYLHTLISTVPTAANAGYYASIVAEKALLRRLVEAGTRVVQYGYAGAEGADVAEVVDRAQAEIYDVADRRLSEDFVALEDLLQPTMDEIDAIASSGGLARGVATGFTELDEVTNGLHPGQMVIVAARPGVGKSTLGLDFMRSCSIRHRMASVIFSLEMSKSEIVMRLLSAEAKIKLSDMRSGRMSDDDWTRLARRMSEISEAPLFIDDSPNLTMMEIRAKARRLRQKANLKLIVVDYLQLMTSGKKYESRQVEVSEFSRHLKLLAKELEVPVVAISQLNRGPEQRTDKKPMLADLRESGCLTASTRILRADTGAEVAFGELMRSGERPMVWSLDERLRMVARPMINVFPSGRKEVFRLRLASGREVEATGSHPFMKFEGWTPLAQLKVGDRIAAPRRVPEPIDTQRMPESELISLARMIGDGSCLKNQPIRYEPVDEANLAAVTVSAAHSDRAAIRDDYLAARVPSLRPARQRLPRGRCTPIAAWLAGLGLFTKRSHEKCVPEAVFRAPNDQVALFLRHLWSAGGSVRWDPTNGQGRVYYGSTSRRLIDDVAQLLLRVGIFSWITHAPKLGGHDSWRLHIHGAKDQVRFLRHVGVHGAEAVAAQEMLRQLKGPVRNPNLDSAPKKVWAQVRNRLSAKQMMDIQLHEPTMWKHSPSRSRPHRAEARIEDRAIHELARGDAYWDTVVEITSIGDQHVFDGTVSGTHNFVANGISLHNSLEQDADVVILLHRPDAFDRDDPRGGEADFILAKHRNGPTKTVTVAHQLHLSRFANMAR
Put plainly: DnaB intein splicing inhibitors, dose response, biochemical, cell-free fluorescence (AID 449749). In kind it is functional.

The target of a further test is T2, Protein RecA (Mycobacterium tuberculosis, UniProt P9WHJ3).
T2 sequence (P9WHJ3 whole entry): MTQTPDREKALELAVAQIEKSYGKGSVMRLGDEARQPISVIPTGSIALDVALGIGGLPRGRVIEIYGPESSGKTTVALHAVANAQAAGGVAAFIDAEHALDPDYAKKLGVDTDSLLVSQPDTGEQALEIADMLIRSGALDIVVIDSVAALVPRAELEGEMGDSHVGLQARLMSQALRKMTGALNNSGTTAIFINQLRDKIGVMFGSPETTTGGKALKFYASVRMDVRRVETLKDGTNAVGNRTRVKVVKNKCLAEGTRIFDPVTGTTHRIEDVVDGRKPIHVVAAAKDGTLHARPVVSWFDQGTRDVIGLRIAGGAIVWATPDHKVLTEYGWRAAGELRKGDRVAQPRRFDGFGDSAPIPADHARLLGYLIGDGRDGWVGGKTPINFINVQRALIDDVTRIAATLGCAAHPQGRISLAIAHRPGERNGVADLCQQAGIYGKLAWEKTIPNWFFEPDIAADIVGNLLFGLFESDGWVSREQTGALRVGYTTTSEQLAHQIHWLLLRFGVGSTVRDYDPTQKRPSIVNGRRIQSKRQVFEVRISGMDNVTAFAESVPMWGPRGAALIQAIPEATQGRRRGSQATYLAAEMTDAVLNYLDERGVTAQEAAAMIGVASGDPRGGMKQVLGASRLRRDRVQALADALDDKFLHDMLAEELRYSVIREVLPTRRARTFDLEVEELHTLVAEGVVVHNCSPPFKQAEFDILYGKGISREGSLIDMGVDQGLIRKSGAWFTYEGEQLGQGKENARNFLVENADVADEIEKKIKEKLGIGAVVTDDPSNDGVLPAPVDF
Put plainly: Fluorescence Cell-Free Homogeneous Dose Retest to Identify Inhibitors of RecA-Intein Splicing Activity. [Related pubchem assays (depositor defined):AID2097, AID2223, AID489010, AID492950]. Type of test: functional.

Test [2] addresses T3, SUMO-activating enzyme (Homo sapiens, UniProt Q9UBT2). Put plainly: blockers of UBC9-mediated SUMO conjugation – biochemical, AlphaScreen, SUMOylation inhibitor project, confirmation (AID 2018). In kind it is functional. On the technique in general: Bead proximity is the source of the signal in Alpha formats.
Test [3] has as its target T3, SUMO-activating enzyme. Put plainly: blockers of SAE1/SAE2–UBC9 SUMO transfer – biochemical, HTRF, uHTS, primary screen (AID 2006). Type of test: protein-complex assay.
Test [4] has as its target T4, Intestinal-type alkaline phosphatase (Homo sapiens, UniProt P09923). The test can be described thus: human intestinal alkaline phosphatase activators, dose response, biochemical, luminescence, uHTS hits (AID 463120). Type of test: functional.
Test [5] deals with T4, Intestinal-type alkaline phosphatase. Put plainly: Dose Response confirmation of uHTS hits from a small molecule inhibitors of human intestinal alkaline phosphatase via a luminescent assay. [Related pubchem assays (depositor defined):AID2544, AID2574]. In kind it is functional.
The nature of test [6]: Luminescence Cell-Based Dose Confirmation HTS to Identify Inhibitors of 5'UTR Stem-Loop Driven Alpha-Synuclein mRNA Translation in H4 Neuroglioblastoma Cells. [Related pubchem assays: 1827 (Project Summary), 1813 (Primary HTS)]. In kind it is functional.
A short description of test [7]: Luminescence Cell-Based Dose Response HTS to Identify Activators of Luciferase Translation or Activity in H4-C Neuroglioblastoma Cells. [Related pubchem assays: 1829 (Project Summary), 1814 (Primary HTS)]. Type of test: functional.
A short description of test [8]: alpha-synuclein stem-loop luciferase translation blockers – H4 neuroglioma cells, luminescence, confirmation (AID 1988). In kind it is functional, cell-based.
Test [9] is described as follows: HEK-293T viability loss after treatment – luminescence, T-cell screen hits, cytotoxicity control for TCR NF-kB inhibitor project, dose response (AID 489026).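 Note: cells exposed to compound about 14 hours before the viability readout.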 In kind it is functional, cell-based.
Test [10] in a line: Luminescence Cell-Based Dose Response HTS to Identify Activators of 5'UTR Stem-Loop Driven Prion Protein mRNA Translation in H4-C Neuroglioblastoma Cells. [Related pubchem assays: 1829 (Project Summary), 1814 (Primary HTS)]. In kind it is functional.
Test [11] can be described thus: luciferase reporter signal suppression in cells – H4 neuroglioma cells, luminescence, dose response (AID 1990). In kind it is functional, cell-based. On the technique in general: In a reporter assay the amount or activity of a reporter protein is the signal.
Test [12] is described as follows: Luminescence Cell-Based Dose HTS Response to Identify Inhibitors of 5'UTR Stem-Loop Driven Prion Protein mRNA Translation in H4-C Neuroglioblastoma Cells. [Related pubchem assays (depositor defined):AID1814, AID1827]. Type of test: functional.
A short description of test [13]: Luminescence Cell-Based Dose Retest to Confirm Activators of 5'UTR Stem-Loop Driven Alpha-Synuclein mRNA Translation in H4 Neuroglioblastoma Cells. [Related pubchem assays (depositor defined):AID1813, AID1829]. Type of test: functional.
Test [14] in a line: Luminescence Cell-Based Dose Response HTS to Identify Inhibitors of 5'UTR Stem-Loop Driven Prion Protein mRNA Translation in H4 Neuroglioblastoma Cells. [Related pubchem assays: 1827 (Project Summary), 1813 (Primary HTS)]. In kind it is functional.
The nature of test [15]: Luminescence Cell-Based Dose Response HTS to Identify Inhibitors of Luciferase Translation or Activity in H4-C Neuroglioblastoma Cells. [Related pubchem assays: 1813 (Primary HTS), 1827 (Project Summary)]. In kind it is functional.
The target of a further test is Cytochrome P450 2C9 (Homo sapiens, UniProt P11712).
Cytochrome P450 2C9, sequence (P11712 whole entry): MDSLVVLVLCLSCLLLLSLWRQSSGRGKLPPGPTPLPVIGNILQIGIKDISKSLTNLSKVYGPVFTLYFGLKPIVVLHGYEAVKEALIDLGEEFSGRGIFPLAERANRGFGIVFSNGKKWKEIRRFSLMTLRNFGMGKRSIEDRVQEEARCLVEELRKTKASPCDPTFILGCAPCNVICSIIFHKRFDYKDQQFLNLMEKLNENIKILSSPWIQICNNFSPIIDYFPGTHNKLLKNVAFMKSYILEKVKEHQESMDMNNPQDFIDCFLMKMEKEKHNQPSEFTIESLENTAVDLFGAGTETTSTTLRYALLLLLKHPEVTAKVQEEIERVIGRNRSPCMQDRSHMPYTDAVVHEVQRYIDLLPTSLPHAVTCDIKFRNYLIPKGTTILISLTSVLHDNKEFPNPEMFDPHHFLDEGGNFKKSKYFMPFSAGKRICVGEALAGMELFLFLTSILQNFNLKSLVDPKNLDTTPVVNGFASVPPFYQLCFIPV
In test [16] the target is Lysine-specific demethylase 4C (Homo sapiens, UniProt Q9H3R0). Put plainly: inhibition of JMJD2C H3K9me3 demethylation – biochemical, DELFIA europium, cherry-picked samples, dose response (AID 488835). Type of test: functional.
Lysine-specific demethylase 4C, sequence (Q9H3R0 whole entry): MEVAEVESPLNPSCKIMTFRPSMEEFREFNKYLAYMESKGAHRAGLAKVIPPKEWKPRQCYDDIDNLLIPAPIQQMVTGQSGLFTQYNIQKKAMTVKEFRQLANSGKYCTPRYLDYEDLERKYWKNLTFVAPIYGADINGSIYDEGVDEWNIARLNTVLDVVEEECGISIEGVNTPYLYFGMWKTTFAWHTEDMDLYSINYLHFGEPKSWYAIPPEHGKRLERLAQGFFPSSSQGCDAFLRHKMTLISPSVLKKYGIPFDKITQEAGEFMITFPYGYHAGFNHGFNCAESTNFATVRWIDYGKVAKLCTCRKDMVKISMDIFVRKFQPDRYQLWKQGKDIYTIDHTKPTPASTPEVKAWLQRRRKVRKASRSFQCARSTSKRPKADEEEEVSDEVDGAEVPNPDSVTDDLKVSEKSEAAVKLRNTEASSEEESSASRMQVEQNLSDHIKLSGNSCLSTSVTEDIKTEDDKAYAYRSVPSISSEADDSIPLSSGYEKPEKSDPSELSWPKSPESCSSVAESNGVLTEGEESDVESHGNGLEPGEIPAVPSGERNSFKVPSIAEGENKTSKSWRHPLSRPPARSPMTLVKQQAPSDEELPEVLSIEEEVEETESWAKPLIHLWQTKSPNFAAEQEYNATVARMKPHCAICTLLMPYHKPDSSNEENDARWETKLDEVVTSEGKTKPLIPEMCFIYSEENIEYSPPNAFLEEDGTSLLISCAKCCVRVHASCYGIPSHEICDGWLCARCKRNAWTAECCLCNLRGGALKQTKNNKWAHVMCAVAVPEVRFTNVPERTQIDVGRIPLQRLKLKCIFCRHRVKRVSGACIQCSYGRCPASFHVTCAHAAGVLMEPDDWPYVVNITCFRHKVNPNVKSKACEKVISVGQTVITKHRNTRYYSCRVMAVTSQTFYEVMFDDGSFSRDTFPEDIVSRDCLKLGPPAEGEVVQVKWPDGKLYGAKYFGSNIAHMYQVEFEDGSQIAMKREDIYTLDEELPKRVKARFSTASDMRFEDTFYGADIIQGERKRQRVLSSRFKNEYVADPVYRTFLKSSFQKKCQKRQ
Another test relates to INS1. Put plainly: INS-1E survival protection against cytokine death – cell-based, luminescence, retest, dose response (AID 449756).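 Note: cell death triggered by IL-1 beta plus TNF-alpha plus IFN-gamma mixture; protective hits raise ATP signal compared with cytokine alone wells.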 In kind it is functional. The note with it: Rattus norvegicus.

SMILES strings stand for the structures. Active and inactive are the calls of the source.

T4 sequence (P09923 whole entry): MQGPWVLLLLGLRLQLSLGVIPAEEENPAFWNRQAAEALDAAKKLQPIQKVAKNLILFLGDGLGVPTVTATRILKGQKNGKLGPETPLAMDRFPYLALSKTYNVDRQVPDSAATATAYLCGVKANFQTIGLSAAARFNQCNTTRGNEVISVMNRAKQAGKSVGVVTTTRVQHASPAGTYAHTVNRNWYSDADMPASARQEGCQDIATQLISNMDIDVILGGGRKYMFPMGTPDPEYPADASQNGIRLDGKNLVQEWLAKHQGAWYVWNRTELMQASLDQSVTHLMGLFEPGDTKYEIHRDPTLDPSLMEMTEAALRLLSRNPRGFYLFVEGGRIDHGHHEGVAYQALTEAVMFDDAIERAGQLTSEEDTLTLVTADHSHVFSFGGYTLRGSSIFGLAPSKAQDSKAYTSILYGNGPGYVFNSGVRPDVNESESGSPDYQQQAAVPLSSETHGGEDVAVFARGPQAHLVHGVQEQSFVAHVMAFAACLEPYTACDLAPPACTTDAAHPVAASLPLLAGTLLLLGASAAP
T3 sequence (Q9UBE0 whole entry): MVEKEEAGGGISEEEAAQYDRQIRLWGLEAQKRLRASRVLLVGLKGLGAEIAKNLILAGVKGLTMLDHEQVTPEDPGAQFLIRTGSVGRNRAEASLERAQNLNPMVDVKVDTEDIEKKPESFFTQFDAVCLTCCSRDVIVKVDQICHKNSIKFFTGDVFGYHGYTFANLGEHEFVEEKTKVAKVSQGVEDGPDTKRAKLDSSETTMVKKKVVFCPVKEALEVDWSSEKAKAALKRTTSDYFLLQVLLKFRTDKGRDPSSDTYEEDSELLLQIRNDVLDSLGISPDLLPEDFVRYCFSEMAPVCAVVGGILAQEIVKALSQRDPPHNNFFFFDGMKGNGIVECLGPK
T3 sequence (Q9UBT2 whole entry): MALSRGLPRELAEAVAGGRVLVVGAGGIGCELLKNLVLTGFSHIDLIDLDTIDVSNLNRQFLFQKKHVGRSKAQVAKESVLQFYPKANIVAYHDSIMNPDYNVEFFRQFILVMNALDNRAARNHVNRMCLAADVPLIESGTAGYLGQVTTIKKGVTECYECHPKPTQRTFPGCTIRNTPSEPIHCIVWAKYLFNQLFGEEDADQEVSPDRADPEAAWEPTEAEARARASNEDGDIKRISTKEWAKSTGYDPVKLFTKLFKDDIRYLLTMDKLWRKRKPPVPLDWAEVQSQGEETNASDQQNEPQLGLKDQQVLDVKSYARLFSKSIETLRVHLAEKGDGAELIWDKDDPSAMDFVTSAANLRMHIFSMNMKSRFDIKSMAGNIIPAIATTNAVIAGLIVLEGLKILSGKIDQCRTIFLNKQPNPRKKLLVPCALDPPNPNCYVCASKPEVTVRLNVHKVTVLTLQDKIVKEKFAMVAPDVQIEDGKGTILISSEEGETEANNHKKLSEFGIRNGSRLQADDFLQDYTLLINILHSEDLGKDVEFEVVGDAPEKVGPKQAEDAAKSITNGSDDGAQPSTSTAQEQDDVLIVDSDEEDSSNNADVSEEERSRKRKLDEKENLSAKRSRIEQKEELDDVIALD

Take `COc1cc(/C=C2\C(=O)N(c3ccc(S(N)(=O)=O)cc3)N=C2C)ccc1OC(=O)c1ccco1`: the figures for the 50% inhibitory concentration (IC50) on Genome polyprotein, at SUMO-activating enzyme [2] and on SUMO-activating enzyme [3] were 73.2 µM (active), 6.36 µM (active) and > 100 µM (inactive), respectively. For the same compound, the AC50 in test [1] is > 380 µM (inactive). On Protein RecA, the EC50 is 23.8 µM (active).

`CN1CCN(CCNC(=O)Cn2c(=O)c3cccn3c3ccc(F)cc32)CC1`: in test [4], the EC50 was > 100 µM (inactive). Further, the IC50 in test [5] is > 100 µM (inactive).

Regarding `O=C(COc1ccccc1-c1ccccc1)N/N=C/c1cccc2ccccc12`, the EC50 in test [6] is 1.74 µM (active); in [7] it was 921 nM (inconclusive); in test [8], < 0.195 µM (active); in [10], 695 nM (inconclusive); in test [11] it was 11.5 µM (active); in test [12], 1.76 µM (active). Moreover, the figures for the EC50 in test [13], in [14] and in [15] were 1.84 µM (inconclusive), > 120 µM (not active) and 850 nM (active), respectively. Further, the IC50 in test [9] is > 80 µM (inactive). Moreover, on Cytochrome P450 2C9, the AC50 was 20 µM (inconclusive).

For the compound `O=C(CNC(=O)c1ccccc1O)N/N=C/c1cc(Br)ccc1OC(=O)/C=C/c1ccco1`, the AC50 in test [16] is 10.8 µM (active); in the test with INS1, 3.13 µM (active). Besides, the EC50 was 9.47 µM (active) in [8], 10.7 µM (active) in [11] and 7.28 µM (active) in [14].
